This assay has as its target α7 nAChR (Homo sapiens, UniProt P36544). Description: cell-based. Also noted: expressed in transfected cells; host or cells: Xenopus laevis oocytes injected with cRNA transcribed from α7-pSHE; species or system Human (expressed in Xenopus laevis oocytes). To be noted: Inhibition phase potency.

SMILES strings stand for the structures.

α7 nAChR, sequence (P36544 23-502 limits assumed): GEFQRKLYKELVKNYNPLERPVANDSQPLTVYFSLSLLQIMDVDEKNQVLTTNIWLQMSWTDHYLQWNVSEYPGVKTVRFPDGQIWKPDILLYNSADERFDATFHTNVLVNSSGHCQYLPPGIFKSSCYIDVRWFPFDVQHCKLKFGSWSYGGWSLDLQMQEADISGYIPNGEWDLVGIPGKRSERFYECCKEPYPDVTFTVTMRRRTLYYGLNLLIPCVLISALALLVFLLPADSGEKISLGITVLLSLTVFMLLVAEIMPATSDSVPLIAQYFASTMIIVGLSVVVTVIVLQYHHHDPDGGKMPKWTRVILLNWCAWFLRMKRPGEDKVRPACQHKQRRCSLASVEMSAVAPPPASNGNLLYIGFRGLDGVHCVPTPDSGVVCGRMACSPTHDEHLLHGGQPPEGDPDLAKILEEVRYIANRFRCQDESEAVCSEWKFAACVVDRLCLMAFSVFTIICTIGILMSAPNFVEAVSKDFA

Take `CC[C@H](C)[C@H](NC(=O)CNC(=O)[C@H](C)NC(=O)CNC(=O)[C@@H](NC(=O)[C@@H]1CCCN1C(=O)[C@@H](NC(=O)[C@H](CC(=O)O)NC(=O)[C@H](CS)NC(=O)[C@H](CCC(=O)O)NC(=O)[C@@H](N)Cc1ccc(O)cc1)[C@@H](C)CC)[C@@H](C)CC)C(=O)N[C@@H](CS)C(=O)N[C@@H](C)C(=O)N[C@@H](CO)C(=O)N[C@@H](Cc1ccc(O)cc1)C(=O)N[C@@H](CCC(N)=O)C(=O)N[C@H](C(=O)N[C@@H](CCC(N)=O)C(=O)N[C@H](C(=O)N[C@@H](CC(N)=O)C(=O)N[C@@H](CO)C(=O)N[C@@H](CCCNC(=N)N)C(=O)N[C@@H](CCCNC(=N)N)C(=O)N[C@@H](CCCNC(=N)N)C(=O)N[C@@H](C)C(=O)N[C@@H](CCCNC(=N)N)C(=O)N[C@@H](CO)C(=O)N[C@H](C(=O)N[C@@H](C)C(=O)N[C@@H](CO)C(=O)O)C(C)C)[C@@H](C)O)[C@@H](C)O` [delta SCoV2P]: the half-inhibitory concentration (IC50) is 100 µM.

By IC50 is commonly meant the midpoint of a concentration-inhibition curve. Low readings indicate inhibition by little substance, high ones a need for much substance.

The values are drawn from PMC10101490 (The Journal of Biological Chemistry, 2023).
